Results: patent US8129369B2, “Antifungal compounds containing benzothiazinone, benzoxazinone or benzoxazolinone and process thereof” (Council of Scientific & Industrial Research;, priority 2008, dated 2012)
≈ marks a conversion by molar mass, not a printed value.

Columns and labels:
C. albicans ATCC 24433 = assay: MIC by broth macro-dilution method, C. albicans ATCC 24433; assay type: cell-based, Candida albicans; details: 48 hours; for MIC: Candida albicans, ATCC24433, RPMI 1640 with MOPS, MIC = concentration exhibiting 80% inhibition vs positive growth control
Protocol: (§1) The compounds of Formula 1 were tested for antifungal activity against various fungi including Candida albicans, Aspergillus niger and Fusarium proliferatum. In vitro evaluation of antifungal activity was performed by determining the minimum inhibitory concentration (MIC) following standard methods (CLSI: Reference method for broth dilution antifungal susceptibility testing of yeasts; Approved standard, second edition M27-A2, 2002; CLSI: Reference method for broth dilution antifungal susceptibility testing of filamentous fungi; Approved standard M38-A, 2002). Anti-fungal susceptibility testing of these anti-fungal compounds was done by broth dilution method using RPMI 1640 medium with MOPS buffer. Known anti-fungal agents like Fluconazole and Amphotericin-B were used as standards. End points were determined after 48 hours visually and by using spectrophotometer wherever necessary.
(§2) >16 μg/ml: The novel compounds of formula 1 are generally tested for concentration range from 0.03 μg/ml to the concentration till it was in solution (For e.g.: Back precipitation 128-32 μg/ml, Concentration for assay: 0.03 to 16 μg/ml).

[1] = test system: F. proliferatum ATCC 10052; assay: MIC by broth macro-dilution method, F. proliferatum ATCC 10052; assay type: cell-based, Fusarium proliferatum; details: 48 hours; for MIC: Fusarium proliferatum, ATCC10052, RPMI 1640 with MOPS, MIC = concentration exhibiting 80% inhibition vs positive growth control
Protocol: as §1, §2

A. niger ATCC 16404 = assay: MIC by broth macro-dilution method, A. niger ATCC 16404; assay type: cell-based, Aspergillus niger; details: 48 hours; for MIC: Aspergillus niger, ATCC16404, RPMI 1640 with MOPS, MIC = concentration exhibiting 80% inhibition vs positive growth control
Protocol: as §1, §2

C. albicans ATCC2091 = assay: MIC by broth micro-dilution method, C. albicans ATCC2091; assay type: cell-based, Candida albicans; details: for MIC: Candida albicans, ATCC2091, MIC = concentration exhibiting 50% inhibition vs positive control
Protocol: as §1

C. albicans ATCC24433 = assay: MIC by broth micro-dilution method, C. albicans ATCC24433; assay type: cell-based, Candida albicans; details: for MIC: Candida albicans, ATCC24433, MIC = concentration exhibiting 50% inhibition vs positive control
Protocol: as §1

C. krusei ATCC6258 = assay: MIC by broth micro-dilution method, C. krusei ATCC6258; assay type: cell-based; details: for MIC: Pichia kudriavzevii, ATCC6258, MIC = concentration exhibiting 50% inhibition vs positive control
Protocol: as §1

C. albicans ATCC10231 = assay: MIC by broth micro-dilution method, C. albicans ATCC10231; assay type: cell-based, Candida albicans; details: for MIC: Candida albicans, ATCC10231, MIC = concentration exhibiting 50% inhibition vs positive control
Protocol: as §1

C. albicans ATCC90028 = assay: MIC by broth micro-dilution method, C. albicans ATCC90028; assay type: cell-based, Candida albicans; details: for MIC: Candida albicans, ATCC90028, MIC = concentration exhibiting 50% inhibition vs positive control
Protocol: as §1

C. tropicalis ATCC750 = assay: MIC by broth micro-dilution method, C. tropicalis ATCC750; assay type: cell-based; details: for MIC: Candida tropicalis, ATCC750, MIC = concentration exhibiting 50% inhibition vs positive control
Protocol: as §1

C. glabrata ATCC90030 = assay: MIC by broth micro-dilution method, C. glabrata ATCC90030; assay type: cell-based; details: for MIC: Nakaseomyces glabratus, ATCC90030, MIC = concentration exhibiting 50% inhibition vs positive control
Protocol: as §1

[2] = MIC = concentration exhibiting complete inhibition (Amphotericin B)
[3] = RPMI 1640 with MOPS, MIC = concentration exhibiting complete inhibition (Amphotericin B)

Structure (SMILES)	MIC (C. albicans ATCC 24433)	MIC [1]	MIC (A. niger ATCC 16404)	also measured
COc1ccc2c(c1)SCC(=O)N2CC(O)(Cn1cncn1)c1ccc(F)cc1F (stereo not shown) [Compound 1d, 4-[2-(2,4-Difluorophenyl)-2-hydroxy-3-[1,2,4]triazol-1-yl-propyl]-7-methoxy-4H-benzo[1,4]thiazin-3-one]	4 µg/mL (≈ 9.25 µM)	> 32 µg/mL	> 32 µg/mL	–
O=C1CSc2cc(Cl)ccc2N1CC(O)(Cn1cncn1)c1ccc(F)cc1 (stereo not shown) [Compound 1f, 7-Chloro-4-[2-(4-fluorophenyl)-2-hydroxy-3-[1,2,4]-triazol-1-yl-propyl]-4H-benzo[1,4]thiazin-3-one]	2 µg/mL (≈ 4.77 µM)	> 16 µg/mL	> 16 µg/mL	–
Cc1ccc2c(c1)SCC(=O)N2CC(O)(Cn1cncn1)c1ccc(F)cc1F (stereo not shown) [Compound 1e, 4-[2-(2,4-Difluorophenyl)-2-hydroxy-3-[1,2,4]triazol-1-yl-propyl]-7-methyl-4H-benzo[1,4]thiazin-3-one]	2 µg/mL (≈ 4.8 µM)	> 32 µg/mL	> 32 µg/mL	–
O=C1CSc2cc(Cl)ccc2N1CC(O)(Cn1cncn1)c1ccc(F)cc1F (stereo not shown) [Compound 1b, 7-Chloro-4-[2-(2,4-difluorophenyl)-2-hydroxy-3-[1,2,4]-triazol-1-yl-propyl]-4H-benzo[1,4]thiazin-3-one]	1 µg/mL (≈ 2.29 µM)	> 16 µg/mL	> 16 µg/mL	–
COc1ccc2c(c1)SCC(=O)N2CC(O)(Cn1cncn1)c1ccc(Br)cc1 (stereo not shown) [Compound 1g, 4-[2-(4-Bromophenyl)-2-hydroxy-3-[1,2,4]triazol-1-yl-propyl]-7-methoxy-4H-benzo[1,4]thiazin-3-one]	2 µg/mL (≈ 4.21 µM)	> 16 µg/mL	> 16 µg/mL	–
O=C1CSc2ccccc2N1CC(O)(Cn1cncn1)c1ccc(F)cc1F (stereo not shown) [Compound 1a, 4-[2-(2,4-Difluorophenyl)-2-hydroxy-3-[1,2,4]triazol-1-yl-propyl]-4H-benzo[1,4]thiazin-3-one]	0.25 µg/mL (≈ 0.621 µM)	> 64 µg/mL	> 64 µg/mL	MIC (C. albicans ATCC2091): 2 µg/mL (≈ 4.97 µM); MIC (C. albicans ATCC24433): 0.03 µg/mL (≈ 0.0745 µM); MIC (C. krusei ATCC6258): 4 µg/mL (≈ 9.94 µM); MIC (C. albicans ATCC10231): 0.12 µg/mL (≈ 0.298 µM); MIC (C. albicans ATCC90028): 0.03 µg/mL (≈ 0.0745 µM); MIC (C. tropicalis ATCC750): 0.5 µg/mL (≈ 1.24 µM); MIC (C. glabrata ATCC90030): 0.06 µg/mL (≈ 0.149 µM)
C[C@@H]1[C@H](O)[C@@H](C)/C=C/C=C/C=C/C=C/C=C/C=C/C=C/[C@H](O[C@@H]2O[C@H](C)[C@@H](O)[C@H](N)[C@@H]2O)C[C@@H]2O[C@](O)(C[C@@H](O)C[C@@H](O)[C@H](O)CC[C@@H](O)C[C@@H](O)CC(=O)O[C@H]1C)C[C@H](O)[C@H]2C(=O)O [Amphotericin B, reference compound]	–	–	–	MIC C. albicans ATCC2091 (C. albicans ATCC2091; [2]): 0.5 µg/mL (≈ 0.541 µM); MIC C. albicans ATCC24433 (C. albicans ATCC24433; [2]): 0.25 µg/mL (≈ 0.271 µM); MIC C. krusei ATCC6258 (C. krusei ATCC6258; [2]): 0.5 µg/mL (≈ 0.541 µM); MIC C. albicans ATCC10231 (C. albicans ATCC10231; [2]): 0.5 µg/mL (≈ 0.541 µM); MIC C. albicans ATCC90028 (C. albicans ATCC90028; [2]): 0.5 µg/mL (≈ 0.541 µM); MIC C. albicans ATCC24433 (C. albicans ATCC 24433; [3]): 0.25 µg/mL (≈ 0.271 µM); MIC C. tropicalis ATCC750 (C. tropicalis ATCC750; [2]): 0.5 µg/mL (≈ 0.541 µM); MIC F. proliferatum ATCC 10052 [1, 3]: 2 µg/mL (≈ 2.16 µM); MIC A. niger ATCC 16404 (A. niger ATCC 16404; [3]): 1 µg/mL (≈ 1.08 µM); MIC C. glabrata ATCC90030 (C. glabrata ATCC90030; [2]): 0.25 µg/mL (≈ 0.271 µM)
O=C1CSc2cc(Br)ccc2N1CC(O)(Cn1cncn1)c1ccc(F)cc1F (stereo not shown) [Compound 1c, 7-Bromo-4-[2-(2,4-difluorophenyl)-2-hydroxy-3-[1,2,4]triazol-1-yl-propyl]-4H-benzo[1,4]thiazin-3-one]	1 µg/mL (≈ 2.08 µM)	> 16 µg/mL	> 16 µg/mL	–

Continued, in another order:

MIC (C. albicans ATCC 24433)	MIC [1]	MIC (A. niger ATCC 16404)	Structure (SMILES)	also measured
16 µg/mL (≈ 34.4 µM)	> 32 µg/mL	> 32 µg/mL	O=C1COc2ccc(Br)cc2N1CC(O)(Cn1cncn1)c1ccc(F)cc1F (stereo not shown) [Compound 1k, 6-Bromo-4-[2-(2,4-difluorophenyl)-2-hydroxy-3-[1,2,4]triazol-1-yl-propyl]-4H-benzo[1,4]oxazin-3-one]	–
4 µg/mL (≈ 8.63 µM)	> 16 µg/mL	> 16 µg/mL	O=C1COc2ccc(Cl)cc2N1CC(O)(Cn1cncn1)c1ccc(Br)cc1 (stereo not shown) [Compound 1n, 4-[2-(4-Bromophenyl)-2-hydroxy-3-[1,2,4]-triazol-1-yl-propyl]-6-chloro-4H-benzo[1,4]oxazin-3-one]	–
32 µg/mL (≈ 67.9 µM)	> 32 µg/mL	> 32 µg/mL	CC(=O)c1ccc2c(c1)N(CC(O)(Cn1cncn1)c1ccc(Br)cc1)C(=O)CO2 (stereo not shown) [Compound 1p, 6-Acetyl-4-[2-(4-bromophenyl)-2-hydroxy-3-[1,2,4]triazol-1-yl-propyl]-4H-benzo[1,4]oxazin-3-one]	–
2 µg/mL (≈ 5.37 µM)	> 128 µg/mL	> 128 µg/mL	O=c1oc2ccccc2n1CC(O)(Cn1cncn1)c1ccc(F)cc1F (stereo not shown) [Compound 1q, 3-[2-(2,4-Difluorophenyl)-2-hydroxy-3-[1,2,4]triazol-1-yl-propyl]-3H-benzoxazolin-2-one]	–
> 64 µg/mL	> 64 µg/mL	> 64 µg/mL	CC(=O)c1ccc2c(c1)N(CC(O)(Cn1cncn1)c1ccc(F)cc1F)C(=O)CO2 (stereo not shown) [Compound 1m, 6-Acetyl-4-[2-(2,4-difluorophenyl)-2-hydroxy-3-[1,2,4]-triazol-1-yl-propyl]-4H-benzo[1,4]oxazin-3-one]	–
8 µg/mL (≈ 19 µM)	> 32 µg/mL	> 32 µg/mL	O=C1COc2ccc(Cl)cc2N1CC(O)(Cn1cncn1)c1ccc(F)cc1F (stereo not shown) [Compound 1j, 6-Chloro-4-[2-(2,4-difluorophenyl)-2-hydroxy-3-[1,2,4]triazol-1-yl-propyl]-4H-benzo[1,4]oxazin-3-one]	–
8 µg/mL (≈ 19.3 µM)	> 16 µg/mL	> 16 µg/mL	COc1ccc2c(c1)SCC(=O)N2CC(O)(Cn1cncn1)c1ccc(F)cc1 (stereo not shown) [Compound 1h, 4-[2-(4-Fluorophenyl)-2-hydroxy-3-[1,2,4]triazol-1-yl-propyl]-7-methoxy-4H-benzo[1,4]thiazin-3-one]	–
1 µg/mL (≈ 3.27 µM)	> 128 µg/mL	128 µg/mL (≈ 418 µM)	OC(Cn1cncn1)(Cn1cncn1)c1ccc(F)cc1F [Fluconazole, reference compound]	MIC (C. albicans ATCC2091): 4 µg/mL (≈ 13.1 µM); MIC (C. albicans ATCC24433): 0.25 µg/mL (≈ 0.816 µM); MIC (C. krusei ATCC6258): 64 µg/mL (≈ 209 µM); MIC (C. albicans ATCC10231): 1 µg/mL (≈ 3.27 µM); MIC (C. albicans ATCC90028): 0.5 µg/mL (≈ 1.63 µM); MIC (C. tropicalis ATCC750): 2 µg/mL (≈ 6.53 µM); MIC (C. glabrata ATCC90030): 4 µg/mL (≈ 13.1 µM)
32 µg/mL (≈ 74.2 µM)	> 32 µg/mL	> 32 µg/mL	O=C1COc2ccc([N+](=O)[O-])cc2N1CC(O)(Cn1cncn1)c1ccc(F)cc1F (stereo not shown) [Compound 1l, 4-[2-(2,4-Difluorophenyl)-2-hydroxy-3-[1,2,4]triazol-1-yl-propyl]-6-nitro-4H-benzo[1,4]oxazin-3-one]	–
0.5 µg/mL (≈ 1.29 µM)	> 64 µg/mL	> 64 µg/mL	O=C1COc2ccccc2N1CC(O)(Cn1cncn1)c1ccc(F)cc1F (stereo not shown) [Compound 1i, 4-[2-(2,4-Difluorophenyl)-2-hydroxy-3-[1,2,4]-triazol-1-yl-propyl]-4H-benzo[1,4]oxazin-3-one]	MIC (C. albicans ATCC2091): 4 µg/mL (≈ 10.4 µM); MIC (C. albicans ATCC24433): 0.12 µg/mL (≈ 0.311 µM); MIC (C. krusei ATCC6258): 16 µg/mL (≈ 41.4 µM); MIC (C. albicans ATCC10231): 0.5 µg/mL (≈ 1.29 µM); MIC (C. albicans ATCC90028): 0.12 µg/mL (≈ 0.311 µM); MIC (C. tropicalis ATCC750): 2 µg/mL (≈ 5.18 µM); MIC (C. glabrata ATCC90030): 0.25 µg/mL (≈ 0.647 µM)
